According to ChEMBL document CHEMBL5620396, “Phenotypic screening identifies a trisubstituted imidazo[1,2-a]pyridine series that induces differentiation in multiple AML cell lines” (Eur J Med Chem, 2023):
In brackets after ≈: the same amount, converted by molar mass. Activity calls are given as the source filed them. No cut-off for these calls is given here.

How the values were obtained:
[1] = Semi-thermodynamic aqueous solubility of compound; type: physicochemical; conditions: buffer; read-out: Therm_solubility
[2] = Metabolic stability in mouse S9 fraction assessed as compound remaining measured after 45 mins in absence of NADPH and […]; type: ADME, subcellular; conditions: read-out: Stability
[3] = test system: HL-60; assay: Induction of differentiation in human HL-60 cells assessed as reduction in cell number at 10 nM incubated for 4 days by acridine orange/DAPI staining based analysis; type: functional; conditions: time 4.0 day
[4] = test system: THP-1; assay: Induction of differentiation in human THP-1 cells assessed as reduction in cell number at 10 nM incubated for 4 days by acridine orange/DAPI staining based analysis; type: functional; conditions: time 4.0 day
[5] = test system: OCI-AML-3; assay: Induction of differentiation in human OCI-AML-3 cells assessed as reduction in cell number at 10 nM incubated for 4 days by acridine orange/DAPI staining based analysis; type: functional; conditions: time 4.0 day
[6] = test system: KG-1; assay: Induction of differentiation in human KG-1 cells assessed as reduction in cell number at 10 nM incubated for 4 days by acridine orange/DAPI staining based analysis; type: functional; conditions: time 4.0 day
[7] = test system: ME-1; assay: Induction of differentiation in human ME-1 cells assessed as reduction in cell number at 10 nM incubated for 4 days by acridine orange/DAPI staining based analysis; type: functional; conditions: time 4.0 day
[8] = test system: Kasumi 1; assay: Induction of differentiation in human Kasumi 1 cells assessed as reduction in cell number at 10 nM incubated for 4 days by acridine orange/DAPI staining based analysis; type: functional; conditions: time 4.0 day
[9] = test system: HL-60; assay: Induction of differentiation in human HL-60 cells assessed as upregulation of CD11b response at 10 uM incubated for 4 days by flow cytometry analysis relative to control; type: functional; conditions: time 4 day
[10] = test system: HL-60; assay: Induction of differentiation in human HL-60 cells assessed as upregulation of CD11b response at 1 uM incubated for 4 days by flow cytometry analysis relative to control; type: functional; conditions: time 4 day
[11] = test system: HL-60; assay: Induction of differentiation in human HL-60 cells assessed as reduction in cell number at 10 uM incubated for 4 days by acridine orange/DAPI staining based analysis; type: functional; conditions: time 4.0 day
[12] = test system: THP-1; assay: Induction of differentiation in human THP-1 cells assessed as reduction in cell number at 10 uM incubated for 4 days by acridine orange/DAPI staining based analysis; type: functional; conditions: time 4.0 day
[13] = test system: OCI-AML-3; assay: Induction of differentiation in human OCI-AML-3 cells assessed as reduction in cell number at 10 uM incubated for 4 days by acridine orange/DAPI staining based analysis; type: functional; conditions: time 4.0 day
[14] = test system: KG-1; assay: Induction of differentiation in human KG-1 cells assessed as reduction in cell number at 10 uM incubated for 4 days by acridine orange/DAPI staining based analysis; type: functional; conditions: time 4.0 day
[15] = test system: ME-1; assay: Induction of differentiation in human ME-1 cells assessed as reduction in cell number at 10 uM incubated for 4 days by acridine orange/DAPI staining based analysis; type: functional; conditions: time 4.0 day
[16] = test system: Kasumi 1; assay: Induction of differentiation in human Kasumi 1 cells assessed as reduction in cell number at 10 uM incubated for 4 days by acridine orange/DAPI staining based analysis; type: functional; conditions: time 4.0 day
[17] = test system: HL-60; assay: Induction of morphological changes in human HL-60 cells assessed as variation in cell size at 10 uM; type: functional, cell-based
[18] = test system: HL-60; assay: Induction of morphological changes in human HL-60 cells assessed as variations in nuclear segmentation at 10 uM; type: functional, cell-based
[19] = test system: HL-60; assay: Induction of morphological changes in human HL-60 cells assessed as appearance of wider and lighter cytoplasm at 10 uM; type: functional, cell-based
[20] = test system: HL-60; assay: Induction of morphological changes in human HL-60 cells assessed as appearance of granules and vacuoles at 10 uM; type: functional, cell-based

SMILES: COc1ccccc1-c1cc(NC=O)c2ncc(-c3ccc4c(C)nn(C)c4c3)n2c1
- solubility thermodynamic [1]: 2 µM (≈ 0.823 µg/mL)

SMILES: COc1ccc(-c2cnc3c(N4CC5(COC5)C4)nc(-c4ccccc4OC)cn23)cc1OC
- solubility thermodynamic [1]: 26 µM (≈ 11.9 µg/mL)

SMILES: COc1ccc(-c2cnc3c(NC(C)=O)cc(-c4ccccc4OC)cn23)cc1OC
- remaining at 0.75 h [2]: 1%
- solubility thermodynamic [1]: 39 µM (≈ 16.3 µg/mL)

SMILES: COc1ccc(-c2cnc3c(NS(C)(=O)=O)cc(-c4ccccc4OC)cn23)cc1OC
- solubility thermodynamic [1]: 43 µM (≈ 19.5 µg/mL)

SMILES: COc1ccc(-c2cnc3ncc(-c4ccccc4OC)cn23)cc1OC
- remaining at 0.75 h [2]: 70%
- solubility thermodynamic [1]: 1 µM (≈ 0.361 µg/mL)

SMILES: CNc1nc(-c2ccccc2OC)cn2c(-c3ccc(OC)c(OC)c3)cnc12
- solubility thermodynamic [1]: 39 µM (≈ 15.2 µg/mL)

SMILES: CCCCCCCCCCCCCC(=O)O[C@@H]1[C@@H](C)[C@@]2(O)[C@@H](C=C(CO)C[C@]3(O)C(=O)C(C)=C[C@@H]23)[C@@H]2C(C)(C)[C@]12OC(C)=O
- Activity [3]: Active
- Activity [4]: Active
- Activity [5]: Active
- Activity [6]: Active
- Activity [7]: Active
- Activity [8]: Active

SMILES: COc1ccc(-c2cnc3c(NC=O)cc(-c4ccccc4OC)cn23)cc1C#N
- solubility thermodynamic [1]: 2 µM (≈ 0.797 µg/mL)

SMILES: CC1=C(c2cc(NS(C)(=O)=O)c3ncc(-c4ccc5c(cnn5C)c4)n3c2)CCCC1
- solubility thermodynamic [1]: 26 µM (≈ 11.3 µg/mL)

SMILES: CNc1cc(-c2ccccc2OC)cn2c(-c3ccc(OC)c(OC)c3)cnc12
- remaining at 0.75 h [2]: 81%
- solubility thermodynamic [1]: 8 µM (≈ 3.12 µg/mL)

SMILES: COc1cc(F)ccc1-c1cc(NS(C)(=O)=O)c2ncc(-c3ccc4c(cnn4C)c3)n2c1
- solubility thermodynamic [1]: 12 µM (≈ 5.59 µg/mL)

SMILES: COc1ccccc1-c1cc(NC=O)c2ncc(-c3ccc4nc(C)oc4c3)n2c1
- solubility thermodynamic [1]: 2 µM (≈ 0.797 µg/mL)

SMILES: COc1ccccc1-c1cc(NC=O)c2ncc(-c3ccccc3)n2c1
- solubility thermodynamic [1]: 2 µM (≈ 0.687 µg/mL)

SMILES: COc1ccc(-n2cnc3cnc(-c4ccccc4OC)cc32)cc1OC
- solubility thermodynamic [1]: 200 µM (≈ 72.3 µg/mL)

SMILES: COc1ccccc1-c1cc(NC=O)c2nccn2c1
- solubility thermodynamic [1]: > 200 µM

SMILES: COc1cc(C#N)ccc1-c1cc(NS(C)(=O)=O)c2ncc(-c3ccc4c(cnn4C)c3)n2c1
- solubility thermodynamic [1]: 2 µM (≈ 0.945 µg/mL)

SMILES: COc1ccccc1-c1cc(NS(C)(=O)=O)c2ncc(-c3ccc4c(cnn4C)c3)n2c1
- solubility thermodynamic [1]: 18 µM (≈ 8.06 µg/mL)

SMILES: COc1ccc(-c2cnc3c(NC=O)nc(-c4ccccc4OC)cn23)cc1OC
- remaining at 0.75 h [2]: 0.5%
- solubility thermodynamic [1]: 1 µM (≈ 0.404 µg/mL)

SMILES: COc1ccc(-c2cnc3c(N4CCOCC4)nc(-c4ccccc4OC)cn23)cc1OC
- solubility thermodynamic [1]: 4 µM (≈ 1.79 µg/mL)

SMILES: COc1ccc(-c2cnc3ccc(-c4ccccc4OC)cn23)cc1OC
- solubility thermodynamic [1]: 156 µM (≈ 56.2 µg/mL)

SMILES: COc1ccccc1-c1cc(NC=O)c2ncc(-c3ccc4c(cnn4C)c3)n2c1
- solubility thermodynamic [1]: 2 µM (≈ 0.795 µg/mL)

SMILES: COc1ccccc1-c1cc(NC=O)c2ncc(-c3ccc4nn(C)c(C)c4c3)n2c1
- solubility thermodynamic [1]: 4 µM (≈ 1.65 µg/mL)

SMILES: COc1ccc(-c2cnc3c(C(N)=O)cc(-c4ccccc4OC)cn23)cc1OC
- solubility thermodynamic [1]: 12 µM (≈ 4.84 µg/mL)

SMILES: Cc1ccccc1-c1cc(NS(C)(=O)=O)c2ncc(-c3ccc4c(cnn4C)c3)n2c1
- solubility thermodynamic [1]: 13 µM (≈ 5.61 µg/mL)

SMILES: Cc1cc(C#N)ccc1-c1cc(NS(C)(=O)=O)c2ncc(-c3ccc4c(cnn4C)c3)n2c1
- solubility thermodynamic [1]: 26 µM (≈ 11.9 µg/mL)

SMILES: COc1ccc(-c2cnc3c(N)cc(-c4ccccc4OC)cn23)cc1OC
- solubility thermodynamic [1]: 38 µM (≈ 14.3 µg/mL)

SMILES: Cn1ncc2cc(-c3cnc4c(NS(C)(=O)=O)cc(-c5ccc(F)cc5Cl)cn34)ccc21
- solubility thermodynamic [1]: 9 µM (≈ 4.23 µg/mL)

SMILES: COc1ccc(-c2cnc3c(NC=O)cc(-c4ccccc4OC)cn23)cc1OC
- Activity [9]: <=78%
- Activity [10]: 14%
- Activity [11]: Active
- Activity [12]: Active
- Activity [13]: Active
- Activity [14]: Active
- Activity [15]: Active
- Activity [16]: Active
- Activity [17]: Active
- Activity [18]: Active
- Activity [19]: Active
- Activity [20]: Active
- remaining at 0.75 h [2]: 28%
- solubility thermodynamic [1]: 37 µM (≈ 14.9 µg/mL)

SMILES: COc1ccccc1-c1cc(NC=O)c2ncc(-c3ccc4c(c3)c(C)nn4C)n2c1
- solubility thermodynamic [1]: 6 µM (≈ 2.47 µg/mL)

SMILES: COc1ccc(-c2cnc3c(N(C)C=O)cc(-c4ccccc4OC)cn23)cc1OC
- remaining at 0.75 h [2]: 46%
- solubility thermodynamic [1]: 1 µM (≈ 0.417 µg/mL)
